# Test results published in patent US20060020036A1, “Methods and compositions to promote bone homestasis” (priority 2004, published 2006).
# Entries after “also recorded” stand apart in the source; their conditions may differ.
# Legend:
# NR1H3 = target: T1, NR1H3 (Homo sapiens, UniProt Q13133); experiment: AP assay: MPCs infected with Ad-NR1H3 and treated with ligand; assay type: cell-based; conditions: for up-regulation of endogenous alkaline phosphatase (AP) activity, dose-response: MPCs infected with Ad-NR1H3, ligand at different concentrations
# T1 construct: amplification of the complete open reading frame from ATG start codon to the stop codon of drugable genes; expressed in transfected cells; host or cells: primary human mesenchymal progenitor cells (MPCs), transduced with Ad5-NR1H3 and Ad-hCAR
# T1 sequence (Q13133 1-447): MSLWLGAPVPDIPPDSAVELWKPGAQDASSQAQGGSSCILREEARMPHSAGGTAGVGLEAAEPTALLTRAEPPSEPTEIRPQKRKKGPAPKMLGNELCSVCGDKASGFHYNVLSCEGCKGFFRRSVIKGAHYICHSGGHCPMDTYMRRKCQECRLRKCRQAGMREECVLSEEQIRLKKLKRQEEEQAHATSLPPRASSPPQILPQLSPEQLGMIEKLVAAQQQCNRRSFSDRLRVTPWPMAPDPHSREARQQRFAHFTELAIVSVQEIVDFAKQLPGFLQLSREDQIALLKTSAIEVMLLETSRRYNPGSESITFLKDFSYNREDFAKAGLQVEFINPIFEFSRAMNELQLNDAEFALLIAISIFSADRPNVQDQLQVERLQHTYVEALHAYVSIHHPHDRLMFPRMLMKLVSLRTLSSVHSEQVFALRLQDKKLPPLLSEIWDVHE
# Experimental: Mesenchymal progenitor cells (MPCs) differentiate into osteoblasts in the presence of appropriate factors (e.g. BMP2). An assay to screen for such factors is developed by monitoring the activity of alkaline phosphatase (AP) enzyme, an early marker in the osteoblast differentiation program. MPCs are seeded in 384 well plates and simultaneously co-infected one day later with adenoviruses encoding the human coxsackie and adenovirus receptor (hCAR; Ad-hCAR) and individual adenoviruses (Ad-cDNA) from the arrayed adenoviral knock-in collection containing cDNA sequences corresponding to genes from “drugable” classes like GPCR's, kinases, proteases, phosphodiesterases and nuclear hormone receptors (the FLeXSelect collection). The majority of these cDNAs are obtained by a PCR-based approach. Briefly, PCR primers are designed for amplification of the complete open reading frame from ATG start codon to the stop codon of drugable genes, based on sequence data present in the RefSeq database. Primers are mixed in an arrayed format at a PCR ready concentration in 96 well plates. As a template for the PCR reactions, placental, fetal liver, fetal brain and spinal cord cDNA libraries are used (from Invitrogen or Edge Biosystems). For the genes encoded by a single exon, PCR reactions are also performed on human genomic DNA. After the amplification reactions, the PCR products are purified with a 96-well PCR clean-up system (Wizard magnesil, Promega, Madison, Wis., USA), digested with the appropriate restriction enzymes (AscI, NotI or SalI restriction sites are included in the primers) and directly cloned into the adenoviral adapter plasmid pIspAdAdapt-10-Zeo (described in U.S. Pat. No. 6,340,595) using DNA ligation kit version 2 (TaKaRa, Berkeley, CA, USA). After a transformation and selection step, multiple clones per gene, one of which is sequence verified, are used for the preparation of plasmid DNA and subsequent generation of adenovirus according to the procedure described in WO99/64582.
# Cellular AP activity is determined 6 days after the infection (or ligand addition—see below). The principle of the assays is depicted in FIG. 2. […] Six days after the start of infection or treatment with a ligand, endogenous alkaline phosphatase activity is measured following addition of 4-methylumbelliferyl […] (MUP) substrate.
# The stocks of the Ad-control-viruses are generated in 96 well plates (control plate). […] Up-regulation of alkaline phosphatase is read at 6 days post infection (6 dpi): 15 μl 4-Methylumbelliferyl-phosphate (MUP, Sigma) is added to each well, the plates are incubated for 15 min at 37° C. and monitored for AP activity using a fluorescence plate reader (Fluostar, BMG). […]
# primary human MPCs = experiment: Mineralization assay (Alizarin RedS / Von Kossa); assay type: cell-based; conditions: MPCs with NR1H3 and T0901317
# Experimental: On day one, primary human MPCs are seeded in a 6 well plate (Costar or Nunc) at a density of 50,000 to 250,000 cells per well, typically at 100,000 cells per well. MPCs are co-infected one day later with AdC15-hCAR (MOI 750) and Ad-control (eGFP or BMP2) or hit-virus (Ad5) (at MOIs between 250 and 20,000, typically at MOIs 5000 and 2500). For Ad-GPCR or Ad-NHR experiments, cells can additionally be treated with specific ligands. These are added at the EC50 concentration and at concentrations 5-10 times higher and lower. Ligands are added 2-3 times per week. Medium supplemented with 100 μg/ml L-ascorbate and 10 mM beta-glycerophosphate, is refreshed 2 times a week. 20 to 30 days after the start of the experiment, cells are stained with Von Kossa stain or with Alizarin RedS stain.
# The Alizarin RedS staining is carried out as follows: cells are washed once with PBS, fixed with 10% paraformaldehyde for 45 minutes at 4° C., and washed 2 times with PBS. Cells are incubated with 40 mM aqueous Alizarin RedS solution, pH 4.1-4.3 for 10 minutes followed by 5 washes with distilled water. Staining is evaluated and photographed using white light.
Compound,"up-regulation of endogenous alkaline phosphatase (AP) activity, dose-response (NR1H3)",mineralization (primary human MPCs),"induction of AP activity in different MPC isolates (NR1H3; MPCs from 4 different donors, Ad-NR1H3 MOI 2500 + T0901317, 6 days)"
"CC(=O)Oc1ccc2c(c1)[C@@]1(C)CCC[C@](C)(C(=O)OC(=O)[C@@]3(C)CCC[C@]4(C)c5cc(OC(C)=O)ccc5CC[C@@H]34)[C@@H]1CC2 [APD, acetyl podocarpic dimer]",dose-response relation is observed; also recorded: AP activity is up-regulated; also recorded: Dose-dependent up-regulation of AP activity,,
"O=C(O)Cc1cccc(OCCCN(Cc2cccc(C(F)(F)F)c2Cl)CC(c2ccccc2)c2ccccc2)c1 [GW3965, 2-(3-(3-(N-(2-chloro-3-(trifluoromethyl)benzyl)-N-(2,2-diphenylethyl)amino)propoxy)phenyl)acetic acid]",dose-response relation is observed; also recorded: AP activity is up-regulated; also recorded: Dose-dependent up-regulation of AP activity,,
"O=S(=O)(c1ccccc1)N(CC(F)(F)F)c1ccc(C(O)(C(F)(F)F)C(F)(F)F)cc1 [T0901317, N-(2,2,2-trifluoroethyl)-N-[4-[2,2,2-trifluoro-1-hydroxy-1-(trifluoromethyl)ethyl]phenyl]-benzenesulfonamide]",dose-dependently increase the up-regulation of the endogenous alkaline phosphatase activity; also recorded: AP activity is up-regulated; also recorded: score well,score well,induce AP activity to similar extents in all 4 MPC isolates tested; also recorded: induce AP activity independent of the MPC isolate
